Where a name gives a salt, the structure may show the parent alone.
What was measured:
[1] = test system: animal model with heart failure (ligation of left anterior descending coronary artery); assay: anti-heart failure activity (short term, acute) in animal model (rat); format: in vivo; settings: for mAP / mLVP: 7 days before and 3 days after ligation, measured Day 11; for improvement effect on mAP and mLVP / effect on lowering blood pressure compared with untreated animal group: short-term administration, rat
Procedure: The animal model with heart failure using ligation of left anterior descending coronary artery was prepared, the therapeutic drug to the modeling animal was administrated by pre-gavage, once per day for 7 continuous days, and was continuously administrated for three days after successful modeling.
SD male rats aged 6-week old;
Pre-test preparation: All animals were divided into 5 groups by randomized blocks, 6 rats in each group, and the animals were acclimated for 3 days before test treatment; Experimental process: Therapeutic drug was given to the test animals by pre-gavage, once per day for 7 continuous days. Operation was conducted on Day 8, the animals were anesthetized, trachea was connected to a respirator, electrocardiograph (ECG) was connected for real-time recording, thoracic cavity was opened between the 3rd and 4th ribs, left anterior descending coronary artery was ligated, ST segment elevation of ECG indicated successful ligation, the thoracic cavity was closed, and the skin was sutured;
The animals were anesthetized on Day 11, ECG was measured, and then arterial pressure and left ventricular pressure were measured by carotid artery intubation.

[2] = test system: animal model with heart failure (ligation of left anterior descending coronary artery); assay: anti-heart failure activity (long term, chronic) in animal model (rat); format: in vivo
[3] = singly used as medication; cited from earlier work
[4] = Hygroscopicity (plain sample) at RH 75% and RH 85%; format: physicochemical
[5] = Flowability (angle of repose, bulk density); format: physicochemical
[6] = test system: patients with heart failure; settings: compared with the enalapril treatment group; cited from earlier work
[7] = 30 mg/kg gavage once per day for 4 weeks
[8] = 68 mg/kg gavage once per day for 4 weeks
[9] = samples crushed to particle size distribution similar to LCZ696

CCOC(=O)[C@H](C)C[C@@H](Cc1ccc(-c2ccccc2)cc1)NC(=O)CCC(=O)O [AHU377 calcium salt, AHU377 (Sacubitril, CAS: 149709-62-6)]
mAP ([1]; 30 mg/kg gavage once per day): 104 mmHg | mLVP ([1]; 30 mg/kg gavage once per day): 63 mmHg | improvement effect on mAP and mLVP / effect on lowering blood pressure compared with untreated animal group [1]: not significant | Ejection fraction [2, 7]: 53.3% | Heart rate [2, 7]: 378.9 beats/min | Myocardial fibrosis [2, 7]: 54.88% | Thickness of heart wall [2, 7]: 0.137 cm

CCCCc1nc(Cl)c(C(=O)O)n1Cc1ccc(-c2ccccc2-c2nnn[nH]2)cc1 [EXP3174]
mAP ([1]; 30 mg/kg gavage once per day): 106 mmHg | mLVP ([1]; 30 mg/kg gavage once per day): 61 mmHg | improvement effect on mAP and mLVP / effect on lowering blood pressure compared with untreated animal group [1]: not significant | Ejection fraction [2, 7]: 47.9% | Heart rate [2, 7]: 427.8 beats/min | Myocardial fibrosis [2, 7]: 62.89% | Thickness of heart wall [2, 7]: 0.136 cm | bioavailability [3]: low bioavailability

CCCCC(=O)N(Cc1ccc(-c2ccccc2-c2nnn[n-]2)cc1)[C@H](C(=O)[O-])C(C)C.CCOC(=O)[C@H](C)C[C@@H](Cc1ccc(-c2ccccc2)cc1)NC(=O)CCC(=O)[O-].O.[Na+].[Na+].[Na+] [LCZ696]
mAP ([1]; 68 mg/kg gavage once per day): 78 mmHg | mLVP ([1]; 68 mg/kg gavage once per day): 44 mmHg | Ejection fraction [2, 8]: 70.6% | Heart rate [2, 8]: 412.9 beats/min | Myocardial fibrosis [2, 8]: 11.51% | state of test samples at the end of the hygroscopicity experiment ([4]; RH 75% and RH 85%, end of experiment): completely deliquescent | water content, RH 75% Day 0 ([4]; RH 75%, Day 0, plain sample): 4.9% | water content, RH 85% Day 0 ([4]; RH 85%, Day 0, plain sample): 4.9% | electrostatic phenomenon of powder ([5]; powder property test): electrostatic phenomenon | flowability (in words) ([5]; powder property test): hardly flowable | Angle of repose [5, 9]: 57.35 ° | Bulk density [5, 9]: 0.527 g/mL | reduction of hospitalization rate of patients with heart failure [6]: 21%

Source: patent US11026925B2, “Angiotensin II receptor antagonist metabolite and NEP inhibitor composite and preparation method thereof” (SHENZHEN SALUBRIS PHARMACEUTICALS CO. LTD, priority 2016, dated 2021)
